Structures can show the parent of a compound that is named as a salt.
What was measured:
[1] = system: LDL receptor/ApoE deficient mice; assay: Combination study (experiment II): plasma lipids/lipoproteins after Compound (I), atorvastatin calcium salt or both; assay type: in vivo; conditions: for HDL, % Change compared to control group / LDL, % Change compared to control group / LP-remnants, % Change compared to control group: FPLC
Protocol: (§1) Compound (I) was dissolved in polyethanylglycol (PEG):ethanol:solutol:Water (4:1:0.5:8.5) vehicle and administered by gavage once a day in the afternoon.
(§2) Altogether 54 female LDL receptor/ApoE deficient mice were used (5 to 6 weeks old weighing 25 to 30 g at the start of the study; obtained from B&M/AS, Denmark). They were kept under standardized conditions with free access to water and chow. The light-cycle hours were between 6:00 a.m. and 6:00 p.m. In experiment I, the dose response study, the mice were treated with Compound (I) by gavage once a day in the afternoon the first three days and in the morning the last day. The control group on regular R^3-chow received the vehicle by gavage. […] The control group received R^3 chow and vehicle.
(§3) Mice were starved 3 hours before they were scarified at 10 a.m. Animals were anaesthetized with isofluran, bled by cardiac puncture, and thereafter killed by cervical dislocation. Blood was collected into EDTA containing tubes, plasma was separated by centrifugation and stored at −70° C.
(§4) Cholesterol in plasma and in FPLC on line measurement was performed with a commercial cholesterol kit from Roche Diagnostics, GmbH, Germany, Cholesterol, CHOD-PAP 1489437.
(§5) Triglycerides in plasma was measured by using a commercial reagent kit, from Roche Diagnostics, GmbH, Germany, Triglycerides/GB, 450032.
(§6) The cholesterol distribution profiles were measured by using a size exclusion high performance liquid chromatography system, SMART, with column Superose 6 PC 3.2/30, (Amersham Pharmacia Biotec, Uppsala, Sweden). The chromatographic system was linked to an air segmented continuous flow system for online post-derivatization analysis of total cholesterol by using enzymatic colorimetric reagents. The SMART-system was connected to a sample injector, (Gina 50, Gynkotek HPLC, Germering, GmbH). Elution buffer consisted of 0.01M Tris, 0.03 M NaCl, pH 7.40, flow rate […]. The on line flow system was equipped with a peristaltic pump, flow rate 0.7 ml/min, and an incubation coil for 8 minutes at 37° C. The absorbance was measured at […] with a UV/VIS detector, (Jasco UV-970, Jasco International Co, Ltd, Japan). Data were integrated with a Chromeleon chromatography data system (Gynkotek HPLC, Germering GmbH). The distribution of lipoproteins was continuously measured as total cholesterol by using enzymatic calorimetric reagent, reconstituted in water, double volume compared to manufacturer instructions. The commercial kits were from Roche Diagnostics, GmbH, Germany, Cholesterol, CHOD-PAP 1489437. The separation was performed within 60 minutes on a 10 μl sample. The integrated area of the fractions was expressed in molar concentration. The various peaks in the profiles are designated LP-remnants, LDL, and HDL for simplicity, even though it is clear that the separation is determined primarily by the size of the lipoproteins.

[2] = system: LDL receptor/ApoE deficient mice; assay: Dose response study (experiment I): plasma lipids/lipoproteins after Compound (I) by gavage; assay type: in vivo; conditions: for Chol (plasma total cholesterol), % Change compared to control group / LP-remnants + LDL/HDL, % Change compared to control group / TG (plasma triglycerides), % Change compared to control group / HDL, % Change compared to control group / LDL, % Change compared to control group / LP-remnants, % Change compared to control group: three days, gavage
Protocol: as §1, §2, §3, §4, §5, §6
With the aim to determine the effect of the BAT inhibitor, Compound (I), on the level of plasma lipids in LDL receptor/ApoE deficient mice, groups of animals received vehicle or Compound (I) at increasing doses (0.62, 2.5, 10 and 40 μmol/kg/day) for 3.5 days. […] To analyze plasma lipoproteins in detail, plasma lipoprotein patterns were generated after separation of plasma by FPLC.

[3] = FPLC analysis of plasma, 7 days
[4] = one week, Compound (I) 10 μmol/kg/day by gavage, atorvastatin calcium salt 0.05% in chow
[5] = FPLC, dose not stated in the sentence (Table 1: 40 μmol/kg/day)

## CC(C)c1c(C(=O)Nc2ccccc2)c(-c2ccccc2)c(-c2ccc(F)cc2)n1CC[C@@H](O)C[C@@H](O)CC(=O)O [Atorvastatin calcium salt, reference compound]
[1]; [3]
  reduction of LDL cholesterol: 44%
[1]; [4]
  LP-remnants + LDL/HDL, % Change compared to control group: 2%
  HDL, % Change compared to control group: −22%
  LDL, % Change compared to control group: −43%
  LP-remnants, % Change compared to control group: −2%

## CCCC[C@]1(CC)CS(=O)(=O)c2cc(O[C@@H]3O[C@H](C(=O)O)[C@@H](O)[C@H](O)[C@H]3O)ccc2[C@@H](c2ccccc2)N1 [Compound (I), (3R,5R)-3-butyl-3-ethyl-1,1-dioxido-5-phenyl-2,3,4,5-tetrahydro-1,4-benzothiazepin-8-yl β-D-glucopyranosiduronic acid]
[2]; 0.625 μmol/kg/day
  Chol (plasma total cholesterol), % Change compared to control group: −9%
  LP-remnants + LDL/HDL, % Change compared to control group: −30%
  TG (plasma triglycerides), % Change compared to control group: 13%
[2]; 0.625 μmol/kg/day, FPLC
  HDL, % Change compared to control group: 29%
  LDL, % Change compared to control group: 8%
  LP-remnants, % Change compared to control group: −27%
[2]; 10 μmol/kg/day
  Chol (plasma total cholesterol), % Change compared to control group: −35%
  LP-remnants + LDL/HDL, % Change compared to control group: −55%
  TG (plasma triglycerides), % Change compared to control group: 23%
[2]; 10 μmol/kg/day, FPLC
  HDL, % Change compared to control group: 36%
  LDL, % Change compared to control group: −20%
  LP-remnants, % Change compared to control group: −54%
[2]; 40 μmol/kg/day
  Chol (plasma total cholesterol), % Change compared to control group: −40%
  LP-remnants + LDL/HDL, % Change compared to control group: −62%
  TG (plasma triglycerides), % Change compared to control group: 8%
[2]; 40 μmol/kg/day, FPLC
  HDL, % Change compared to control group: 45%
  LDL, % Change compared to control group: −23%
  LP-remnants, % Change compared to control group: −63%
[2]; 0.62-40 μmol/kg/day, 3.5 days
  Plasma triglycerides (in words): not significantly altered
[2]; FPLC
  HDL cholesterol (in words): no reduction
[2]; [5]
  reduction in plasma cholesterol in LDL fraction: 23%
  reduction in plasma cholesterol in LP-remnants fraction: 63%
[2]; highest dose (40 μmol/kg/day), 3.5 days
  reduction of total plasma cholesterol: 40%
[1]; 7 days
  increase in HDL cholesterol: 22%
[1]; 7 days, Compound (I) 10 μmol/kg/day alone
  effect on the plasma triglyceride level (in words): no effect
[1]; 7 days, atorvastatin calcium salt 0.05% in diet (approximately 80-100 mg/kg/day), Compound (I) 10 μmol/kg/day
  reduction of total plasma cholesterol: 40%
[1]; [3]
  reduction of LDL cholesterol: 30%
  reduction of LP-remnants cholesterol: 62%
[1]; [4]
  Chol (plasma total cholesterol), % Change compared to control group: −42%
  LP-remnants + LDL/HDL, % Change compared to control group: −54%
  TG (plasma triglycerides), % Change compared to control group: 7%
  HDL, % Change compared to control group: 22%
  LDL, % Change compared to control group: −29%
  LP-remnants, % Change compared to control group: −62%

From patent US20050124557A1, “Use of benzothiazepines having activity as inhibitors of ileal bile acid transport for reducing cholesterololemia” (priority 2002, published 2005)
